We go through 14 compounds from ChEMBL document CHEMBL4414621, “Thiohydantoin and Hydantoin Derivatives from the Roots of Armoracia rusticana and Their Neurotrophic and Anti-neuroinflammatory Activities” (J Nat Prod, 2019).

Usually IC50 stands for the concentration at which inhibition is half-maximal.

A short description of series [1]: Cytotoxicity against rat C6 cells assessed as cell viability at 20 uM incubated for 24 hrs by MTT assay relative to control. Type of series: cell-based. The note with it: read-out: Activity.
Series [2] concerns C6. Briefly: Neuroprotective activity in rat C6 cells assessed as NGF secretion at 20 uM incubated for 24 hrs by ELISA relative to control. Type of series: functional.
For series [3], the system named is BV-2. The series is described as follows: Antineuroinflammatory activity against mouse BV2 cells assessed as inhibition in LPS-induced NO production preincubated for 30 mins followed b LPS addition and measured after 24 hr by griess reagent based assay. The format is functional, cell-based. (Griess reagent forms a coloured azo dye with nitrite.)

`O=C1C2CCCN2C(=S)N1Cc1ccccc1` (stereo not drawn): the viability at 24 h, 20 µM in series [1] was determined as 109%. The Activity in series [2] came to 105.88%.

`NC(=O)NCCc1ccccc1`: the viability at 24 h, 20 µM in series [1] was 107%. The Activity in series [2] came to 105.82%. Also, the IC50 in series [3] is 32.6 µM.

With `C=CCN1C(=O)[C@]2(O)CCCN2C1=S`, the viability at 24 h, 20 µM in series [1] is 106%. For the same compound, in series [2], the Activity came to 93.41%.

Regarding `O=C1N(CCc2ccccc2)C(=S)N2CCC[C@@]12O`, the viability at 24 h, 20 µM in series [1] came to 112%. Further, the Activity in series [2] was 75.08%.

Consider `C=CCN1C(=O)N2CCC[C@@]2(O)C1=O`, for which the viability at 24 h, 20 µM in series [1] was found to be 97.3%. Also, the Activity in series [2] came to 110.66%.

Take `O=C1[C@@H]2CCCN2C(=O)N1CCc1ccccc1`: in series [1], the viability at 24 h, 20 µM came out at 111%. Besides, the Activity in series [2] is 111.26%.

With `C=CCN1C(=O)[C@@]2(O)CCCN2C1=S`, in series [1], the viability at 24 h, 20 µM was 114%. For the same compound, in series [2], the Activity stood at 153.59%.

As to `CSC1=NC[C@]2(S1)C(=O)Nc1ccccc12`, the viability at 24 h, 20 µM in series [1] came to 88.2%. In addition, the Activity in series [2] stood at 96.3%.

As for `O=C1N(CCc2ccccc2)C(=O)[C@]2(O)CCCN12`, the viability at 24 h, 20 µM in series [1] stood at 91.2%. Moreover, in series [2], the Activity amounted to 98.7%.

As to `O=C1N(CCc2ccccc2)C(=O)[C@@]2(O)CCCN12`, the viability at 24 h, 20 µM in series [1] came out at 106%. The Activity in series [2] came out at 115.13%.

On to `O=C1N(CCc2ccccc2)C(=S)N2CCC[C@]12O`, for which, in series [1], the viability at 24 h, 20 µM came to 108%. For the same compound, the Activity in series [2] was 100.68%.

For `C=CCN1C(=O)N2CCC[C@]2(O)C1=O`, in series [1], the viability at 24 h, 20 µM worked out at 100%. Also, the Activity in series [2] came out at 141.99%.

Take `CCCCC/C=C/C(=O)CCc1ccc(O)c(OC)c1` [SHOGAOL]: in series [1], the viability at 24 h, 20 µM was found to be 111%. The Activity in series [2] was found to be 140.69%.

Consider `CNC(=N)NCCC[C@H](N)C(=O)O` [TILARGININE], for which, in series [3], the IC50 came to 21.9 µM.
